The values below are quoted from earlier work in patent publication US8236927B2, “Stabilizer molecule-depleted albumin solution” (Albutec GmbH, priority 2005, dated 2012).

For the data set, the target named is T1, binding site II (diazepam binding site) of the albumin (Homo sapiens, UniProt P02768).
T1 construct: commercial albumin, stabilized with 5.2 mmole of octanoate and 5.2 mmol of N-acetyl tryptophanate per mmol albumin; purchased
The settings on record: N-acetyl tryptophan added stepwise up to a molar ratio of 1:1; reduced from 100%.

T1 sequence (P02768 25-609): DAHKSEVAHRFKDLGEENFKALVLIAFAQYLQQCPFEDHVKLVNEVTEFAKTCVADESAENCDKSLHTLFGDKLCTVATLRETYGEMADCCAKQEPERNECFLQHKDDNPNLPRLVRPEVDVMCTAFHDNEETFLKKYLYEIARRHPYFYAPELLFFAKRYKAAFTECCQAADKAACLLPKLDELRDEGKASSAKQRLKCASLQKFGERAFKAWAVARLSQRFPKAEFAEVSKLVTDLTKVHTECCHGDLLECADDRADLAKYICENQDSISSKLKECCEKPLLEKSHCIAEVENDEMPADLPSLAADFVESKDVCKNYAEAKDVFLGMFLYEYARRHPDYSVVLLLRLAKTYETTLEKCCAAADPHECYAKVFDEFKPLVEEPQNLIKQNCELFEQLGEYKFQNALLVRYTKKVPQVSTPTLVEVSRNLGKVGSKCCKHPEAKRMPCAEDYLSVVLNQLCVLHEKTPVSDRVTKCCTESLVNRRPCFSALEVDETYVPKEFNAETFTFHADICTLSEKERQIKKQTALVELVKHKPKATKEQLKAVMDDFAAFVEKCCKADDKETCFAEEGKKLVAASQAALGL

Turning to `CC(=O)N[C@@H](Cc1c[nH]c2ccccc12)C(=O)O` [N-acetyl tryptophan], the “binding capacity for dansylsarcosin of ligand-free albumin” value is given as “about 60%”.
